What was measured:
[1] = phospholipid alone, not complexed with 22A; cited from earlier work
[2] = Diameter of 22A-phospholipid sHDL complexes by DLS; assay type: physicochemical; conditions: volume intensity average
Protocol: The quality of resulting sHDL complexes were analyzed by following analytical techniques. The purity of sHDL complexes were determined by gel permeation chromatography (GPC), with UV detection at 220 nm, using a Tosoh TSK gel G3000SWxl column (Tosoh Bioscience, King of Prussia, PA). The sHDL diameters were determined by dynamic light scattering (DLS), using a Zetasizer Nano ZSP (Malvern Instruments, Westborough, MA) and the volume intensity average values were reported. Transition temperature of sHDL complexes were analyzed by differential scanning calorimetry (DSC) using Nano DSC (TA Instruments, New Castle, DE).

[3] = tested on: NF-κB reporter, human TLR4 (HEK-Blue cells); experiment: LPS-induced NF-κB expression in HEK-Blue cells (Example X); assay type: cell-based; conditions: 0.1 mg/ml, LPS 2 ng/ml, 18 h
Protocol: FIG. 29A-I: sHDL complexes inhibit LPS-induced NF-κB activation in a lipid component and concentration dependent. HEK-Blue system was used to analyze neutralization of the LPS-induced inflammatory response. HEK-Blue cells were co-stimulated with 0.01, 0.03, and 0.1 mg/ml sHDL and 2 ng/ml LPS and incubated for 18 h. The activation of NF-κB reporter was quantified by measuring absorption at 650 nm (A-H). sHDL at 0.03 mg/ml were treated in presence of 2 ng/ml LPS and the activation of NF-κB reporter was quantified by measuring absorption at 650 nm (I).
The HEK-Blue cell system (InvivoGen) was used to analyze neutralization of the LPS-induced inflammatory response. HEK-Blue cells stably express reporter-linked human TLR4, CD14, MD2, and a NF-κB and are designed for studying the stimulation of human TLR4. Briefly, HEK-Blue cells were cultured in Dulbecco's Modified Eagle's Medium (DMEM) containing 10% low endotoxin fetal bovine serum (FBS) and selective antibiotics according to the manufacturer's instructions (InvivoGen). Growth medium was discarded and cells were resuspended in HEK-Blue Detection medium. Cells were seeded at 25,000 cells per well. The cells were treated with sHDL at 0.01, 0.03, or 0.1 mg/ml and 2 ng/ml of LPS. […] The blue color was quantified by measuring absorption at 650 nm using a SpectraMax M3 plate reader (Molecular Devices, Sunnyvale, CA).

[4] = tested on: endotoxemia mice (5 mg/kg LPS); conditions: 100 mg/kg; cited from earlier work
endotoxemia rats = conditions: cited from earlier work
SARS-CoV = conditions: via reduced or relocated ACE-2 receptors; cited from earlier work

CCCCCCCCCCCCCC(=O)OC[C@H](COP(=O)([O-])OCC[N+](C)(C)C)OC(=O)CCCCCCCCCCCCC [DMPC, 1,2-dimyristoyl-sn-glycero-3-phosphatidylcholine]
Tm of phospholipid [1]: 24.5 °C

CCCCCCCCCCCCCCCC(=O)OC[C@H](COP(=O)([O-])OCC[N+](C)(C)C)OC(=O)CCCCCCCCCCCCCCC [DPPC, 1,2-dipalmitoyl-sn-glycero-3-phosphatidylcholine]
Tm of phospholipid [1]: 41.6 °C

CCCCCCCCCCCCCCCCCC(=O)OC[C@H](COP(=O)([O-])OCC[N+](C)(C)C)OC(=O)CCCCCCCCCCCCCCCCC [DSPC, 1,2-distearoyl-sn-glycero-3-phosphatidylcholine]
Tm of phospholipid [1]: 54.5 °C

CCCCCCCC/C=C\CCCCCCCC(=O)O[C@H](COC(=O)CCCCCCCCCCCCCCC)COP(=O)([O-])OCC[N+](C)(C)C [POPC, 1-palmitoyl-2-oleoyl-phosphatidylcholine]
Tm of phospholipid [1]: −3.3±0.5 °C

PVLDLFRELLNELLEALKQKLK (SEQ ID NO: 4) [22A peptide]
Size (nm) [2]: 4.49 nm | Size (nm) ([2]; listed as 22A PEPTIDE): 4.488 nm | activation of NF-kB [3]: suppressed

apoA-I: apolipoprotein A-I
mortality [4]: significantly lowered | plasma TNF-α (endotoxemia rats; 10 mg/kg 2 h post-LPS injection (1 mg/kg LPS)): reduce | survival rate (endotoxemia rats; 10 mg/kg, endotoxemia rats (5 mg/kg)): increased

methyl-β-cyclodextrin [MβCD]
SARS-CoV cell entry (SARS-CoV): inhibited

From US20240050522A1, “COMPOSITIONS AND METHODS FOR PREVENTING, ATTENUATING, AND TREATING MEDICAL CONDITIONS WITH sHDL NANOPARTICLES” (The Regents of the University of Michigan, priority 2020, published 2024)
